Measured values from US20150018411A1, “COMPOUNDS AS PPAR BETA/DELTA INHIBITORS FOR TREATING PPAR BETA/DELTA-MEDIATED DISEASES” (PHILIPPS-UNIVERSITAT MARBURG, priority 2011, published 2015).
Entries after “also recorded” stand apart in the source; their conditions may differ.

What was measured:
GST-PPAR beta/delta LBD = biological target: T1, GST-PPAR beta/delta LBD (Homo sapiens, UniProt Q03181); assay: Competitive in vitro ligand binding, TR-FRET, displacement of Fluormone Pan-PPAR-Green; conditions: fluorescence ratio 520 nm/495 nm
T1 construct: GST-PPAR beta/delta LBD (GST=glutathione S-transferase); purchased Invitrogen, Darmstadt, Germany
T1 sequence (Q03181 211-439 limits assumed): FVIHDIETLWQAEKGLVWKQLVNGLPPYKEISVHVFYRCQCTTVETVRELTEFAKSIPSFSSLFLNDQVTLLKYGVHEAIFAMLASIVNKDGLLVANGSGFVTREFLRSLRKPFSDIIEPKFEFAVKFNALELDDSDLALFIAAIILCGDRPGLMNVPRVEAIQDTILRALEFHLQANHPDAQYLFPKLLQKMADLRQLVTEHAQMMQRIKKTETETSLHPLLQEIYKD
Description: FIG. 1: Competitive in vitro ligand binding to PPAR beta/delta. • The displacement of ligand Fluormone® Pan-PPAR Green from recombinant GST-PPAR beta/delta ligand binding domain (LBD) by the substances of the present invention comparative compound (CC) 2, compound 1 (A), compound 2 (B), and compound 3 (C), compound 4 (D), compound 5 (E) is determined by TR-FRET analysis. Shown is the ratio of fluorescence intensity at 520 nm (fluorescein emission, excited by terbium emission) and 495 nm (terbium emission). All data points represent average values of triplicates (+/−standard deviation).
A) Competitive ligand-binding of the substances of this invention was measured in vitro using time-resolved fluorescence resonance energy transfer (TR-FRET) by competition with the commercially available fluorescent Fluormone® Pan-PPAR-Green for binding to the fusion protein GST-PPAR beta/delta LBD (GST=glutathione S-transferase; LBD=ligand binding domain) (Invitrogen, Darmstadt, Germany) in a VICTOR3V Multilabel Counter (WALLAC 1420; PerkinElmer Life and Analytical Sciences, Rodgau, Germany). The measurement was performed in 100 mM KC, 20 mM Tris pH 7.9, 0.01% Triton X100 and 1 μg/μL bovine serum albumin. GST is known to the expert in the field as suitable fusion partner for proteins. For this purpose, the ratio of fluorescence intensities at 520 nm (fluorescein emission excited by terbium emission) and at 495 nm (terbium emission) is determined.

PPAR beta/delta = biological target: T2, PPAR beta/delta (Homo sapiens, UniProt Q03181); assay: Agonist-induced transcriptional activity, luciferase reporter in WPMY-1 cells; format: cell-based; conditions: human WPMY-1 myofibroblasts, 500 nM substance, 500 nM agonist L165041
T2 construct: expressed in transfected cells; host or cells: WPMY-1 human myofibroblasts, transient transfection with PEI
T2 sequence (Q03181 1-441): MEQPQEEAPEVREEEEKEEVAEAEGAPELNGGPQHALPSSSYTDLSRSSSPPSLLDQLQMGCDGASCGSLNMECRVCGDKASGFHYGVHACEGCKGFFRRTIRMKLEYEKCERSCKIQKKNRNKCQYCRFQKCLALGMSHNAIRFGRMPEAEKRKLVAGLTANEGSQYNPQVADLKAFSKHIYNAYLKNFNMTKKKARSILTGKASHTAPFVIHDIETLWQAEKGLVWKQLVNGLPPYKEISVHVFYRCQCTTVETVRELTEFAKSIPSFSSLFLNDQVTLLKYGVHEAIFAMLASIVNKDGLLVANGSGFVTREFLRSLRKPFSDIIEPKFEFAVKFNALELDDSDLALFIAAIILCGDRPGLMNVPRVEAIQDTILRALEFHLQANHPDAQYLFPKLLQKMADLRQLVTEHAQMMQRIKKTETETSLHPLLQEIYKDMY
Description: FIG. 4: Effect of the substances of this invention comparative compound (CC) 2, compound 1, compound 5, compound 2 and compound 3 on the agonist-induced transcriptional activity of PPAR subtypes alpha (A), beta/delta (B) and gamma (C). • WPMY-1 cells are transiently transfected with a luciferase reporter plasmid. Four hours after transfection, cells are treated for 48 hours with the respective antagonist (500 nM), followed by a treatment with 300 nM of PPAR alpha agonist GW7647 (A), 500 nM of PPAR beta/delta agonist L165041 (B) or 300 nM of PPAR gamma agonist GW1929 (C). The relative induction is represented by the luciferase activity of the agonist-treated transfected cells in relation to solvent-treated transfected cells. Asterisks (**, *) indicate significant differences to untreated cells (after t-test; **: p<0.01; *: p<0.05). GW7647 is commercially available from Sigma-Aldrich (Steinheim, Germany). L165041 and GW1929 can be obtained from Biozol (Eching, Germany).
D) The influence of substances of this invention on the agonist-induced transcriptional activity of PPAR subtypes alpha, beta/delta or gamma is determined in WPMY-1 myofibroblasts transfected transiently with a luciferase reporter plasmid (LexA system) using polyethyleneimine (PEI) according to a method known to the expert. As agonists, substances GW7647 for PPAR alpha or L165041 for PPAR beta/delta or GW1929 for PPAR gamma known to the expert are used. WPMY-1 myofibroblast cells are initially cultured for example in a 12-well plate in DMEM medium (DMEM: Dulbecco's Modified Eagle Medium) according to a method known to the expert and to a confluence of 70% to 80%, and subsequently transfected with 2.5 μg of plasmid-DNA containing the luciferase reporter plasmid, expression plasmids for the respective PPAR subtypes and the Renilla-luciferase plasmid pRL-SV40 (Promega, Mannheim, Germany), and 2.5 μl PEI (1:1000 dilution, pH 7). Four hours after transfection, the cells are treated for 48 hours with 500 nM of the substances of this invention, and 24 later with 300 nM (GW7647 or GW1929, respectively) or 500 nM (L165041) of the respective agonist at 37° C. and 5% CO2 in an incubator. The luciferase assay is performed 48 hours after the first treatment according to the commercial method of the “dual-well-system” (pjk GmbH, Kleinblittersdorf, Germany), whereby for a normalization, not only the luciferase-, but also the Renilla activity is measured. Cells are initially lysed for this measurement, and 20 μl of the lysate is transferred into a white 96-well plate (Fisher Scientific, Hamburg, Germany). […] Mean values and standard deviation are calculated from values of three independent measurements.

Row | Compound | competition with Fluormone Pan-PPAR-Green for binding to GST-PPAR beta/delta LBD (GST-PPAR beta/delta LBD) | agonist-induced transcriptional activity of PPAR beta/delta (luciferase induction) (PPAR beta/delta)
1 | CCCCCCNc1ccc(NS(=O)(=O)c2ccsc2C(=O)OC)c(OC)c1 [compound 1, methyl 3-(N-(4-(hexylamino)-2-methoxyphenyl)sulfamoyl)thiophene-2-carboxylate] | significant competition efficacy; also recorded: significant competition efficiency | inhibited in a PPAR subtype-specific manner
2 | COC(=O)c1sccc1S(=O)(=O)Nc1ccc(NC(C)(C)C)cc1OC [compound 5, methyl 3-(N-(4-(tert-butylamino)-2-methoxyphenyl)sulfamoyl)thiophene-2-carboxylate] | significant competition efficacy; also recorded: significant competition efficiency | inhibited in a PPAR subtype-specific manner
3 | CCCCCCNc1ccc(NS(=O)(=O)c2ccsc2C(=O)OC)cc1OC [compound 2, methyl 3-(N-(4-(hexylamino)-3-methoxyphenyl)sulfamoyl)thiophene-2-carboxylate] | significant competition efficacy; also recorded: significant competition efficiency | inhibited in a PPAR subtype-specific manner
